The EC50 is the midpoint of the concentration-response curve.

The results in this text go back to patent publication US8846739B2, “TGR5 agonists” (Exelixis Patent Company LLC, priority 2009, dated 2014).

In one test the target is T1, h-TGR5 (Homo sapiens, UniProt Q8TDU6).
T1 sequence (Q8TDU6 1-330): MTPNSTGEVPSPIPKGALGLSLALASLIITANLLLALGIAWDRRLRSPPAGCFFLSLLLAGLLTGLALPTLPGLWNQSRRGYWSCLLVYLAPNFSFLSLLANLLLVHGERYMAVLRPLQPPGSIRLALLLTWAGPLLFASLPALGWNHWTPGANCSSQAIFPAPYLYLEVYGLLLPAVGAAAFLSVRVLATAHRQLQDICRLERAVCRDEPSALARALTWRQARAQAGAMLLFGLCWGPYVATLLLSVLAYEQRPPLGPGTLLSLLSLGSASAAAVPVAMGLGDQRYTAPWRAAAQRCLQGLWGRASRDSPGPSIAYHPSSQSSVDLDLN
The experiment in a line: TGR5 cAMP Assay using Cisbio cAMP Dynamic 2 htrf assay kit. It counts as cell-based. To be noted: hTGR5CRE-luc HEK 293 cells.

For a further test, the target named is T2, human TGR5 (h-TGR5) (Homo sapiens, UniProt Q8TDU6).
T2 sequence (Q8TDU6 1-330): T1 sequence (Q8TDU6 1-330)
The experiment in a line: TGR5/CRE-Luciferase Assay. To be noted: HEK 293 hTGR5/CRE-Luc cells, 6 hours incubation, read-out: CRE-Luc Agonist (EC50). Format: cell-based. In a few lines:
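HEK 293 CRE-Luciferase cells stably expressing the receptor, plated in DMEM 18-20 h before assay, then exposed to serially diluted compounds (DMEM with 5% DMSO) for 6 h. Luciferase read-out after lysis; EC50 from dose-response.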

As to `COc1cc(C(C)(C)c2cnc(SCc3c(F)cc(C(=O)NCC[N+]45CCN(CC4)CC5)cc3Cl)n2-c2ccc(F)cc2)ccc1F` [Example 2a, 1-[2-({[3-chloro-5-fluoro-4-({[5-{1-[4-fluoro-3-(methyloxy)phenyl]-1-methylethyl}-1-(4-fluorophenyl)-1H-imidazol-2-yl]thio}methyl)phenyl]carbonyl}amino)ethyl]-4-aza-1-azoniabicyclo[2.2.2]octane], the EC50 on h-TGR5 and on human TGR5 (h-TGR5) was under 100 nM each time.
In the case of `COc1cc(C(C)(C)c2cnc(CCc3c(F)cc(C(=O)NCC[N+](C)(C)C)cc3Cl)n2-c2ccc(F)cc2)ccc1Cl` [Example 1f, 2-{[(3-chloro-4-{2-[5-{1-[4-chloro-3-(methyloxy)phenyl]-1-methylethyl}-1-(4-fluorophenyl)-1H-imidazol-2-yl]ethyl}-5-fluorophenyl)carbonyl]amino}-N,N,N-trimethylethanaminium], the EC50 on h-TGR5 and on human TGR5 (h-TGR5) was under 100 nM throughout.
In the case of `CC[N+](CC)(CC)CCCNS(=O)(=O)c1cc(F)c(CSc2ncc(C(C)(C)c3ccc(Cl)c(OC)c3)n2-c2ccc(F)cc2)c(Cl)c1` [Example 6c, 3-({[3-chloro-4-({[5-{1-[4-chloro-3-(methyloxy)phenyl]-1-methylethyl}-1-(4-fluorophenyl)-1H-imidazol-2-yl]thio}methyl)-5-fluorophenyl]sulfonyl}amino)-N,N,N-triethylpropan-1-aminium], the 50% effective concentration (EC50) on h-TGR5 and on human TGR5 (h-TGR5) was under 100 nM throughout.
For the compound `COc1cc(C(C)(C)c2cnc(SCc3c(F)cc(S(=O)(=O)N(CCCCC[N+](C)(C)C)[C@H](C)C(=O)O)cc3Cl)n2-c2ccc(F)cc2)ccc1Cl` [Compound 14ad, 5-([(1R)-1-carboxyethyl]{[3-chloro-4-({[5-{1-[4-chloro-3-(methyloxy)phenyl]-1-methylethyl}-1-(4-fluorophenyl)-1H-imidazol-2-yl]thio}methyl)-5-fluorophenyl]sulfonyl}amino)-N,N,N-trimethylpentan-1-aminium], the concentration giving a half-maximal response (EC50) on h-TGR5 and on human TGR5 (h-TGR5) was under 100 nM throughout.
Consider `COc1cc(C(C)(C)c2cnc(SCc3c(F)cc(S(=O)(=O)N4CC([N+](C)(C)C)C4)cc3Cl)n2-c2ccc(F)cc2)ccc1Cl` [Compound 11n, 1-{[3-chloro-4-({[5-{1-[4-chloro-3-(methyloxy)phenyl]-1-methylethyl}-1-(4-fluorophenyl)-1H-imidazol-2-yl]thio}methyl)-5-fluorophenyl]sulfonyl}-N,N,N-trimethylazetidin-3-aminium], for which the EC50 on h-TGR5 and on human TGR5 (h-TGR5) was under 100 nM throughout.
For the compound `COc1cc(C(C)(C)c2cnc(SCc3c(F)cc(C(=O)NCC[N+]4(C)CCOCC4)cc3Cl)n2-c2ccc(F)cc2)ccc1Cl` [Example 2j, 4-[2-({[3-chloro-4-({[5-{1-[4-chloro-3-(methyloxy)phenyl]-1-methylethyl}-1-(4-fluorophenyl)-1H-imidazol-2-yl]thio}methyl)-5-fluorophenyl]carbonyl}amino)ethyl]-4-methylmorpholin-4-ium], the concentration for a half-maximal effect (EC50) on h-TGR5 and on human TGR5 (h-TGR5) was 1000 to 10000 nM in each case.
Consider `COc1cc(-n2c(C(C)(C)c3ccc(S(N)(=O)=O)c(Cl)c3)cnc2SCc2c(F)cc(C(=O)NCC[N+](C)(C)C)cc2Cl)ccc1F` [Example 1a, 2-{[(4-{[(5-{1-[4-(aminosulfonyl)-3-chlorophenyl]-1-methylethyl}-1-[4-fluoro-3-(methyloxy)phenyl]-1H-imidazol-2-yl)thio]methyl}-3-chloro-5-fluorophenyl)carbonyl]amino}-N,N,N-trimethylethanaminium], for which the EC50 on h-TGR5 and on human TGR5 (h-TGR5) was under 100 nM throughout.
With `COc1cc(C(C)(C)c2cnc(SCc3c(F)cc(S(=O)(=O)N(CCC[N+]45CCN(CC4)CC5)[C@H](C)C(=O)O)cc3F)n2-c2ccc(F)cc2)ccc1Cl` [Compound 22, (R)-1-(3-(N-(1-carboxyethyl)-4-((5-(2-(4-chloro-3-methoxyphenyl)propan-2-yl)-1-(4-fluorophenyl)-1H-Imidazol-2-ylthio)methyl)-3,5-difluorophenylsulfonamido)propyl)-4-aza-1-azoniabicyclo[2.2.2]octane chloride], the concentration for a half-maximal effect (EC50) at h-TGR5 and at human TGR5 (h-TGR5) was under 100 nM throughout.
As for `CC[N+](CC)(CC)CCOc1cc(F)c(CSc2ncc(C(C)(C)c3ccc(Cl)c(OC)c3)n2-c2ccc(F)cc2)c(F)c1` [Compound 20a, 2-(4-((5(2-(4-chloro-3-methoxyphenyl)propan-2-yl)-(4-fluorophenyl)-1H-imidazol-2-ylthio)methyl)-3,5-difluorophenoxy)-N,N,N-triethylethanaminium chloride], the concentration for a half-maximal effect (EC50) at h-TGR5 and on human TGR5 (h-TGR5) was under 100 nM each time.
In the case of `COc1cc(C(C)(C)c2cnc(SCc3c(F)cc(C(=O)N[C@H]4CCC[N+](C)(C)C4)cc3Cl)n2-c2ccc(F)cc2)ccc1F` [Example 2p, (3S)-3-({[3-chloro-5-fluoro-4-({[5-{1-[4-fluoro-3-(methyloxy)phenyl]-1-methylethyl}-1-(4-fluorophenyl)-1H-imidazol-2-yl]thio}methyl)phenyl]carbonyl}amino)-1,1-dimethylpiperidinium], the EC50 at h-TGR5 and at human TGR5 (h-TGR5) was under 100 nM in each case.
With `COc1ccc(C(C)(C)c2cnc(SCc3c(F)cc(S(=O)(=O)NCCC[N+](C)(C)C)cc3F)n2-c2ccc(F)cc2)cc1Cl` [Example 6n, 3-({[4-({[5-{1-[3-chloro-4-(methyloxy)phenyl]-1-methylethyl}-1-(4-fluorophenyl)-1H-imidazol-2-yl]thio}methyl)-3,5-difluorophenyl]sulfonyl}amino)-N,N,N-trimethylpropan-1-aminium], the EC50 at h-TGR5 and at human TGR5 (h-TGR5) was under 100 nM throughout.
On to `COc1cc(C(C)(C)c2cnc(SCc3c(F)cc(S(=O)(=O)N(CC4CC[N+](C)(C)CC4)[C@H](C)C(=O)O)cc3F)n2-c2ccc(F)cc2)ccc1Cl` [Compound 15, 2,2,2-trifluoroacetate], for which the concentration for a half-maximal effect (EC50) on h-TGR5 and on human TGR5 (h-TGR5) was under 100 nM in each case.
Take `COc1cc(C(C)(C)c2cnc(SCc3c(F)cc(S(=O)(=O)N(CCCC[N+]45CCN(CC4)CC5)[C@H](C)C(=O)O)cc3F)n2-c2ccc(F)cc2)ccc1Cl` [Compound 22a, N-[4-(4-aza-1-azoniabicyclo[2.2.2]oct-1-yl)butyl]-N-{[4-({[5-{1-[4-chloro-3-(methyloxy)phenyl]-1-methylethyl}-1-(4-fluorophenyl)-1H-imidazol-2-yl]thio}methyl)-3,5-difluorophenyl]sulfonyl}-D-alanine]: the concentration for a half-maximal effect (EC50) on h-TGR5 and at human TGR5 (h-TGR5) was under 100 nM in each case.
With `COc1cc(C(C)(C)c2cnc(SCc3c(F)cc(S(=O)(=O)N4CCC(C[N+](C)(C)C)(C(=O)O)CC4)cc3F)n2-c2ccc(F)cc2)ccc1Cl` [Compound 11x, (4-carboxy-1-{[4-({[5-{1-[4-chloro-3-(methyloxy)phenyl]-1-methylethyl}-1-(4-fluorophenyl)-1H-imidazol-2-yl]thio}methyl)-3,5-difluorophenyl]sulfonyl}piperidin-4-yl)-N,N,N-trimethylmethanaminium], the EC50 on h-TGR5 and on human TGR5 (h-TGR5) was under 100 nM in each case.
Turning to `COc1cc(-n2c(C(C)(C)c3ccc(F)c(Cl)c3)cnc2SCc2c(F)cc(S(=O)(=O)NCCC[N+](C)(C)C)cc2F)ccc1F` [Example 6h, 3-[({4-[({5-[1-(3-chloro-4-fluorophenyl)-1-methylethyl]-1-[4-fluoro-3-(methyloxy)phenyl]-1H-imidazol-2-yl}thio)methyl]-3,5-difluorophenyl}sulfonyl)amino]-N,N,N-trimethylpropan-1-aminium], the concentration giving a half-maximal response (EC50) at h-TGR5 and at human TGR5 (h-TGR5) was under 100 nM in each case.
For the compound `COc1cc(C(C)(C)c2cnc(CCc3c(F)cc(S(=O)(=O)N[C@@H](CCCC[N+](C)(C)C)C(=O)O)cc3Cl)n2-c2ccc(F)cc2)ccc1Cl` [Compound 17n, (S)-5-carboxy-5-(3-chloro-4-(2-(5-(2-(4-chloro-3-methoxyphenyl)propan-2-yl)-1-(4-fluorophenyl)-1H-imidazol-2-yl)ethyl)-5-fluorophenylsulfonamido)-N,N,N-trimethylpentan-1-aminium 2,2,2-trifluoroacetate], the EC50 at h-TGR5 and on human TGR5 (h-TGR5) was under 100 nM in each case.
With `COc1cc(C(C)(C)c2cnc(SCc3c(F)cc(S(=O)(=O)N(C)CCC[N+](C)(C)C)cc3Cl)n2-c2ccc(F)cc2)ccc1Cl` [Compound 12c, 3-(3-chloro-4-((5-(2-(4-chloro-3-methoxyphenyl)propan-2-yl)-1-(4-fluorophenyl)-1H-imidazol-2-ylthio)methyl)-5-fluoro-N-methylphenylsulfonamido)-N,N,N-trimethylpropan-1-aminium 2,2,2-trifluoroacetate], the EC50 at h-TGR5 and on human TGR5 (h-TGR5) was under 100 nM in each case.
Take `COc1cc(C(C)(C)c2cnc(COc3c(F)cc(S(=O)(=O)N(C)CCC[N+](C)(C)C)cc3Cl)n2-c2ccc(F)cc2)ccc1Cl` [Compound 12e, 3-(3-Chloro-4-((5-(2-(4-chloro-3-methoxyphenyl)propan-2-yl)-1-(4-fluorophenyl)-1H-imidazol-2-yl)methoxy)-5-fluoro-N-methylphenylsulfonamido)-N,N,N-trimethylpropan-1-aminium 2,2,2-trifluoroacetate]: the EC50 at h-TGR5 and on human TGR5 (h-TGR5) was under 100 nM each time.
